Key:
[1] = target: D(1A) dopamine receptor (Homo sapiens) (UniProt P21728); assay: D1 (h) Eurofins-Cerep binding assay; parameters: ligand concentration 0.3 nM; details: filed as antagonist, Compound concentration 10.0 uM
[2] = target: Endothelin-1 receptor (Homo sapiens) (UniProt P25101); assay: ETA (h) Eurofins-Cerep binding assay; parameters: ligand concentration 0.03 nM; details: filed as agonist, Compound concentration 10.0 uM
[3] = target: T1, Muscarinic acetylcholine receptor M5 (Homo sapiens) (UniProt P08912); assay: M5 (h) Eurofins-Cerep binding assay; parameters: ligand concentration 0.3 nM; details: filed as antagonist, Compound concentration 10.0 uM
T1 sequence (whole entry): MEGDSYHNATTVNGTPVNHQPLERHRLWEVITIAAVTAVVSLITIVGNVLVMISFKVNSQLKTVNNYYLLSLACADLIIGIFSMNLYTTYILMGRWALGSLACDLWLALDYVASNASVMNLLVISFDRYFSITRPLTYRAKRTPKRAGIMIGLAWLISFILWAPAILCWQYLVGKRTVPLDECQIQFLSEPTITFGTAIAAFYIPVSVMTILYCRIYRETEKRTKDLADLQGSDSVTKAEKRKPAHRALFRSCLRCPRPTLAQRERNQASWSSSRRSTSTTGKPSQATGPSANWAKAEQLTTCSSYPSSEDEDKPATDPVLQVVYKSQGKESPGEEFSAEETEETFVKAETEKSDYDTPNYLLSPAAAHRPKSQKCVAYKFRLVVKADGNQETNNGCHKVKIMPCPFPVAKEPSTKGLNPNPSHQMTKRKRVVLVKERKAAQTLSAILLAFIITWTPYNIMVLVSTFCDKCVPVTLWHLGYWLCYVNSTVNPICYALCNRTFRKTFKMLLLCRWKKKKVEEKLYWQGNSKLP

[4] = target: Substance-K receptor (Homo sapiens) (UniProt P21452); assay: NK2 (h) Eurofins-Cerep binding assay; parameters: ligand concentration 0.1 nM; details: filed as agonist, Compound concentration 10.0 uM
Rattus norvegicus = species: Rattus norvegicus; assay: SKCa channel Eurofins-Cerep binding assay; parameters: ligand concentration 0.007 nM; details: filed as antagonist, Compound concentration 10.0 uM
[5] = target: Tyrosine-protein kinase ABL2 (Homo sapiens) (UniProt P42684); details: Compound concentration 1000.0 nM
[6] = tested on: ALK tyrosine kinase receptor (Homo sapiens), Q9UM73 [L1196M]; details: Compound concentration 1000.0 nM
[7] = target: Calcium/calmodulin-dependent protein kinase type II subunit beta (Homo sapiens) (UniProt Q13554); details: Compound concentration 1000.0 nM
[8] = target: Serine/threonine-protein kinase Chk2 (Homo sapiens) (UniProt O96017); details: Compound concentration 1000.0 nM
[9] = tested on: Epidermal growth factor receptor (Homo sapiens), P00533 [L858R,T790M]; details: Compound concentration 1000.0 nM
[10] = tested on: Receptor-type tyrosine-protein kinase FLT3 (Homo sapiens), P36888 [D835Y]; details: Compound concentration 1000.0 nM
[11] = target: Interleukin-1 receptor-associated kinase 1 (Homo sapiens) (UniProt P51617); details: Compound concentration 1000.0 nM
[12] = target: Tyrosine-protein kinase JAK1 (Homo sapiens) (UniProt P23458); details: Compound concentration 1000.0 nM
[13] = target: Mitogen-activated protein kinase 10 (Homo sapiens) (UniProt P53779); details: Compound concentration 1000.0 nM
[14] = target: Tyrosine-protein kinase Lyn (Homo sapiens) (UniProt P07948); details: Compound concentration 1000.0 nM
[15] = target: Serine/threonine-protein kinase MAK (Homo sapiens) (UniProt P20794); details: Compound concentration 1000.0 nM
[16] = target: Mitogen-activated protein kinase kinase kinase 15 (Homo sapiens) (UniProt Q6ZN16); details: Compound concentration 1000.0 nM
[17] = target: Serine/threonine-protein kinase MARK1 (Homo sapiens) (UniProt Q9P0L2); details: Compound concentration 1000.0 nM
[18] = target: Dual specificity mitogen-activated protein kinase kinase 5 (Homo sapiens) (UniProt Q13163); details: Compound concentration 1000.0 nM
[19] = target: Serine/threonine-protein kinase mTOR (Homo sapiens) (UniProt P42345); details: Compound concentration 1000.0 nM
[20] = tested on: Phosphatidylinositol 4,5-bisphosphate 3-kinase catalytic subunit alpha isoform (Homo sapiens), P42336 [E542K]; details: Compound concentration 1000.0 nM
[21] = target: Phosphatidylinositol 4-kinase beta (Homo sapiens) (UniProt Q9UBF8); details: Compound concentration 1000.0 nM
[22] = target: Ribosomal protein S6 kinase alpha-1 (Homo sapiens) (UniProt Q15418); details: Compound concentration 1000.0 nM
[23] = target: Ribosomal protein S6 kinase alpha-6 (Homo sapiens) (UniProt Q9UK32); details: Compound concentration 1000.0 nM
[24] = target: NUAK family SNF1-like kinase 2 (Homo sapiens) (UniProt Q9H093); details: Compound concentration 1000.0 nM
[25] = target: Phosphatidylinositol 3-kinase catalytic subunit type 3 (Homo sapiens) (UniProt Q8NEB9); details: Compound concentration 1000.0 nM
[26] = target: 5-hydroxytryptamine receptor 2A (Homo sapiens) (UniProt P28223); details: Compound concentration 10.0 uM
[27] = target: Mu-type opioid receptor (Homo sapiens) (UniProt P35372); details: Compound concentration 10.0 uM
[28] = target: Alpha-2C adrenergic receptor (Homo sapiens) (UniProt P18825); details: Compound concentration 10.0 uM
[29] = target: T2, Muscarinic acetylcholine receptor M4 (Homo sapiens) (UniProt P08173); details: Compound concentration 10.0 uM
T2 sequence (whole entry): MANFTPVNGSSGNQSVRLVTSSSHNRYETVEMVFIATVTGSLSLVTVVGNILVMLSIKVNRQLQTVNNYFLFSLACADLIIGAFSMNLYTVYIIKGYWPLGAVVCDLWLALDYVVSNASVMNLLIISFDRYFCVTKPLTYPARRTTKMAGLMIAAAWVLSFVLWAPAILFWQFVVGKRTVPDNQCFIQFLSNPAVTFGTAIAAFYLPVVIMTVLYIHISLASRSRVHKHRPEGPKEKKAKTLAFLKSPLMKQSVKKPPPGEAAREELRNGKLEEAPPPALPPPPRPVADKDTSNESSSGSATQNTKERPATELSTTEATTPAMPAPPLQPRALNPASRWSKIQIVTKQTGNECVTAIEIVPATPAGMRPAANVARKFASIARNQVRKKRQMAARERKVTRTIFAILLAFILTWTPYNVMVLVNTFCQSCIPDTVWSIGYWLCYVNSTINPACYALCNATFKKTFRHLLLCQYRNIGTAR

[30] = target: Alpha-1D adrenergic receptor (Homo sapiens) (UniProt P25100); details: Compound concentration 10.0 uM
[31] = target: Sigma intracellular receptor 2 (Homo sapiens, UniProt Q5BJF2); details: Compound concentration 10.0 uM

Substance-K receptor (Homo sapiens), sequence (P21452 whole entry): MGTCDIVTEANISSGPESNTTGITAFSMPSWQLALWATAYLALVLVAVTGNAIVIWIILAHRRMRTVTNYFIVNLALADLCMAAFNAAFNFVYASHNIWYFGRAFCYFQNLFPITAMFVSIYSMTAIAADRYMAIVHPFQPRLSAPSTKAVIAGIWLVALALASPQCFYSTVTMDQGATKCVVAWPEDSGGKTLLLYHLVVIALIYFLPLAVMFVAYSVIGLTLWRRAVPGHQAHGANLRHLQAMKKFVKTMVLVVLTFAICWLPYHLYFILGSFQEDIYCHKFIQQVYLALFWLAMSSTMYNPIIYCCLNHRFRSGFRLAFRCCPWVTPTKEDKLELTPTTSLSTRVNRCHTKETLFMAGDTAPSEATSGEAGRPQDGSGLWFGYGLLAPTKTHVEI
Calcium/calmodulin-dependent protein kinase type II subunit beta (Homo sapiens), sequence (Q13554 whole entry): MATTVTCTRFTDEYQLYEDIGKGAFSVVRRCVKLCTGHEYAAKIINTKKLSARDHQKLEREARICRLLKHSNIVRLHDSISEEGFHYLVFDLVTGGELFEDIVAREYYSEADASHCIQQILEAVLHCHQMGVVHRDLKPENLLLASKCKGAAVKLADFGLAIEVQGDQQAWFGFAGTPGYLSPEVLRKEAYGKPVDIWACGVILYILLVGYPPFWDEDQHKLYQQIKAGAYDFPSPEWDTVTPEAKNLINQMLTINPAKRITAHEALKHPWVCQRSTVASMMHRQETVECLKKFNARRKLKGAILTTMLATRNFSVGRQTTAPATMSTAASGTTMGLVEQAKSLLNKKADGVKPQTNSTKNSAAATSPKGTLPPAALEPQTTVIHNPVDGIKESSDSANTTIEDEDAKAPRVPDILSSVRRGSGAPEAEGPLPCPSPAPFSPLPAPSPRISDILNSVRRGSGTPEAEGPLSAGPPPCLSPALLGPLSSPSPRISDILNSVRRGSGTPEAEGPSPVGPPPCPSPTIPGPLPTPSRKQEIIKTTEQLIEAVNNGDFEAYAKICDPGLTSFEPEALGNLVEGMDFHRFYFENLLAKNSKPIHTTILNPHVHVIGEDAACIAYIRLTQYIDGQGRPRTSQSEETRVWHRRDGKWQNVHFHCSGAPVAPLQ
D(1A) dopamine receptor (Homo sapiens), sequence (P21728 whole entry): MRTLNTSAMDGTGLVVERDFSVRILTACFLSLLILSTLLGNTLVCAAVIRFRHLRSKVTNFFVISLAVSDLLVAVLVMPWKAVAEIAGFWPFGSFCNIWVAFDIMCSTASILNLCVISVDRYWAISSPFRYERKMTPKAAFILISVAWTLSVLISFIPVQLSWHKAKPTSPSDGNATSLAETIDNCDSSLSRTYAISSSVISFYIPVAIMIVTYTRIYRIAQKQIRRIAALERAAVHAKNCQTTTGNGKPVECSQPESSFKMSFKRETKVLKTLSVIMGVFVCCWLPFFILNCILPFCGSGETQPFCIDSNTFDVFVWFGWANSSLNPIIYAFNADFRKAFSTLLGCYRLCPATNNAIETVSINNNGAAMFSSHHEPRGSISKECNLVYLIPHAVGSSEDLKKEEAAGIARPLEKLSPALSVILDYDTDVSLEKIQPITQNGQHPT
Phosphatidylinositol 4,5-bisphosphate 3-kinase catalytic subunit alpha isoform (Homo sapiens), P42336 [E542K], sequence (P42336 whole entry E542K, canonical isoform): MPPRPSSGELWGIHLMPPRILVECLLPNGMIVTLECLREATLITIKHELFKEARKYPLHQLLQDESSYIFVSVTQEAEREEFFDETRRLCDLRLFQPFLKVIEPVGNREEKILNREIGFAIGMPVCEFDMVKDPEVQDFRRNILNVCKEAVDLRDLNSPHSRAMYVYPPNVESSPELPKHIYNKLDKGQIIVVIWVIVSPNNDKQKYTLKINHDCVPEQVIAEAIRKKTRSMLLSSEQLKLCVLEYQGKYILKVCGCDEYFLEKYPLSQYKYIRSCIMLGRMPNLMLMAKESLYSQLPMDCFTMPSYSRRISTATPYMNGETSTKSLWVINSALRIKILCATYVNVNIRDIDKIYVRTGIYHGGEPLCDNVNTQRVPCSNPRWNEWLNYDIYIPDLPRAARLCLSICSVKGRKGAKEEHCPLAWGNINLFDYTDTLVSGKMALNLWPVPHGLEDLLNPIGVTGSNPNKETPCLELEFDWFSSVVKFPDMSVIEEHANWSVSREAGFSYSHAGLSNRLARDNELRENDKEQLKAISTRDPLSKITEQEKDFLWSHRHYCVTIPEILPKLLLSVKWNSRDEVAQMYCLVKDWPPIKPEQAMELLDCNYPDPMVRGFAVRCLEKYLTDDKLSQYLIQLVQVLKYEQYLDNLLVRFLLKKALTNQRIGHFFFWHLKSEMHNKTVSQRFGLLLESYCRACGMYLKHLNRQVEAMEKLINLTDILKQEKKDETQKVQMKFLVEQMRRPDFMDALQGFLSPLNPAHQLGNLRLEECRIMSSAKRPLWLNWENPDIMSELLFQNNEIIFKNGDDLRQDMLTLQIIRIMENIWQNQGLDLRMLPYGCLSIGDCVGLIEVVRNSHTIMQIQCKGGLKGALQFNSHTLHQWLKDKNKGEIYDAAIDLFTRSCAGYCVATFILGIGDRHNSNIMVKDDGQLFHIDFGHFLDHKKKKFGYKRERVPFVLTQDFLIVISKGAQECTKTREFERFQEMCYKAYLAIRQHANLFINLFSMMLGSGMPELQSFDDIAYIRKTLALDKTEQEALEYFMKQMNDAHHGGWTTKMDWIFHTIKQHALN
Mu-type opioid receptor (Homo sapiens), sequence (P35372 whole entry): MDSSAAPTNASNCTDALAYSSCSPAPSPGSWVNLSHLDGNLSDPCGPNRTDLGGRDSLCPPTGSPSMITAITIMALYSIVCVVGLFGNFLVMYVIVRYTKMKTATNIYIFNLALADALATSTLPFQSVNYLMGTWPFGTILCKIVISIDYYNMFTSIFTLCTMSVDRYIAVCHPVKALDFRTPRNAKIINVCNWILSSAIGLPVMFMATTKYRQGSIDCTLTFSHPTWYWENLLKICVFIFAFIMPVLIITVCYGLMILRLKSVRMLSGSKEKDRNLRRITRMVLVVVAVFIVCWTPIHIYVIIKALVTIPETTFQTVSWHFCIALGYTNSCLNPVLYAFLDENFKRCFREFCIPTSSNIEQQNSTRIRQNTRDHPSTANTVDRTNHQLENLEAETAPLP
Serine/threonine-protein kinase MAK (Homo sapiens), sequence (P20794 whole entry): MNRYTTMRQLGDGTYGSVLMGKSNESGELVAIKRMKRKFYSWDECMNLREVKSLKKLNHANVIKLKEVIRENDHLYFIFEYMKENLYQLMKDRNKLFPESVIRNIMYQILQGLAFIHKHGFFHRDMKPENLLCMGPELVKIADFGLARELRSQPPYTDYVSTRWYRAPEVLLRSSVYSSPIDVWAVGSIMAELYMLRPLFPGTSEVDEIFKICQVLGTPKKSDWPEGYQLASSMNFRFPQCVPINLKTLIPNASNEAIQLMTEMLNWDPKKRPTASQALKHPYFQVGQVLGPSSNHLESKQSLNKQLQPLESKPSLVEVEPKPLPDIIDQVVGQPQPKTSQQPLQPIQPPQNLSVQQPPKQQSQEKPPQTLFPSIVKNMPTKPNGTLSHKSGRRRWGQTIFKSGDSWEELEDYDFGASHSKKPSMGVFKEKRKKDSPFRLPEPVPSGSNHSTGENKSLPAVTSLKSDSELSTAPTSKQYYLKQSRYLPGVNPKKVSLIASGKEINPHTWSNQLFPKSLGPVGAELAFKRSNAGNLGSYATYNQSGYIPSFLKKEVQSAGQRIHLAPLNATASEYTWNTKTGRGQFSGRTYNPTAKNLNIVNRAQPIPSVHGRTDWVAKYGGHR
Alpha-2C adrenergic receptor (Homo sapiens), sequence (P18825 whole entry): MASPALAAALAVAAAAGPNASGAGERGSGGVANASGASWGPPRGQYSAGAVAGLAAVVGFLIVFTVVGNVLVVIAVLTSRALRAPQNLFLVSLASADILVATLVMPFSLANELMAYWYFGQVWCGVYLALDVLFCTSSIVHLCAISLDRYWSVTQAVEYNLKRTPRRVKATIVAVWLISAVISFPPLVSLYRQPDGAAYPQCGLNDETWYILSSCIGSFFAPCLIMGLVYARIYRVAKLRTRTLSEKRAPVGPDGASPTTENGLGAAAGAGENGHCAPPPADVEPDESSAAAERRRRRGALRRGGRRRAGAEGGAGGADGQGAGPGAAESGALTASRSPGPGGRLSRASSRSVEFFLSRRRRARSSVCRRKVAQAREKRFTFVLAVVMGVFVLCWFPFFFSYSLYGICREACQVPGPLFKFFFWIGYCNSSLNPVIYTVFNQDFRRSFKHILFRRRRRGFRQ
Endothelin-1 receptor (Homo sapiens), sequence (P25101 whole entry): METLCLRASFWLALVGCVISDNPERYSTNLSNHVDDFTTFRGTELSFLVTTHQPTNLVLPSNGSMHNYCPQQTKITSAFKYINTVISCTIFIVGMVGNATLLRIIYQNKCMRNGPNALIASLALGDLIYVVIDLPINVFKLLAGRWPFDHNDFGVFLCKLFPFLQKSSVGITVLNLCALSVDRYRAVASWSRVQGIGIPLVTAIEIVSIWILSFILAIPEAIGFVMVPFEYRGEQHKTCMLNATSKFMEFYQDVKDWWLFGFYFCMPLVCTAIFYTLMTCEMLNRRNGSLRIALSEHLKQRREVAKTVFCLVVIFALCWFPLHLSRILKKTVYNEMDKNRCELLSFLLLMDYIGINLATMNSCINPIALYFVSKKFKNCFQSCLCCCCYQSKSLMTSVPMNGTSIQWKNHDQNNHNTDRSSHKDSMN
Tyrosine-protein kinase Lyn (Homo sapiens), sequence (P07948 2-512 limits assumed): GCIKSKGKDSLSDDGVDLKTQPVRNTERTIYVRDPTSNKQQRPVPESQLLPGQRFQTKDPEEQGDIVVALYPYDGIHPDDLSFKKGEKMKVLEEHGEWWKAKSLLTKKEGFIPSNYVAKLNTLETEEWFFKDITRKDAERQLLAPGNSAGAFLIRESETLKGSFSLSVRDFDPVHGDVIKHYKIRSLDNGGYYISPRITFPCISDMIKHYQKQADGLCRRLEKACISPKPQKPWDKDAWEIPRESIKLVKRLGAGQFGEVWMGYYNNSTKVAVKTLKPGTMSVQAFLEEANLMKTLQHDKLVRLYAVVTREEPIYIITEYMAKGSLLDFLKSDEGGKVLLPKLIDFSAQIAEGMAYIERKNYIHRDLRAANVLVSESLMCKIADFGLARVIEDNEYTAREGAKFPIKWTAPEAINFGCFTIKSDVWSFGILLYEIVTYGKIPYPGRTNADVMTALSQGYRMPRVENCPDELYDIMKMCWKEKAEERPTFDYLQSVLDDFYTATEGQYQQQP

| Compound | % Inhibition of Control Specific Binding (Mean n=2) [1] | % Inhibition of Control Specific Binding (Mean n=2) [2] | % Inhibition of Control Specific Binding (Mean n=2) [3] | % Inhibition of Control Specific Binding (Mean n=2) [4] | % Inhibition of Control Specific Binding (Mean n=2) (Rattus norvegicus) | residual activity [5] | residual activity [6] | residual activity [7] | residual activity [8] | residual activity [9] | residual activity [10] | residual activity [11] | residual activity [12] | residual activity [13] | residual activity [14] | residual activity [15] | residual activity [16] | residual activity [17] | residual activity [18] | residual activity [19] | also measured |
| --- | --- | --- | --- | --- | --- | --- | --- | --- | --- | --- | --- | --- | --- | --- | --- | --- | --- | --- | --- | --- | --- |
| COc1ccc2c(c1)O[C@@H](c1ccc(OC)c(OC)c1)C[C@H]2NC(=O)C1(c2ccc3c(c2)OC(F)(F)O3)CC1 [A-1596586] | 14% | -6.9% | 35.7% | 11.5% | 2.2% | 89% | 90% | 69% | 84% | 100% | 100% | 80% | 100% | 99% | 100% | 93% | 88% | 100% | 67% | 100% | residual activity [20]: 79%; residual activity [21]: 73%; residual activity [22]: 85%; residual activity [23]: 91%; residual activity [24]: 76%; residual activity [25]: 78%; inhibition [26]: 8.84%; inhibition [27]: 6.01%; inhibition [28]: 15.8%; inhibition [29]: -2.72%; inhibition [30]: 2.75%; inhibition [31]: 85.8% |
| COc1ccc2c(c1)O[C@H](c1ccc(OC)c(OC)c1)C[C@@H]2NC(=O)C1(c2ccc3c(c2)OC(F)(F)O3)CC1 [A-1596584] | 7.4% | 4% | -0.7% | 11.5% | 4% | 100% | 100% | 88% | 100% | 96% | 100% | 93% | 100% | 100% | 88% | 95% | 100% | 79% | 76% | 100% | residual activity [20]: 95%; residual activity [21]: 81%; residual activity [22]: 100%; residual activity [23]: 91%; residual activity [24]: 100%; residual activity [25]: 88%; inhibition [26]: 7.46%; inhibition [27]: 4.18%; inhibition [28]: 10.1%; inhibition [29]: 0.59%; inhibition [30]: 0.16%; inhibition [31]: 85.3% |

Source: ChEMBL document CHEMBL4507262, “Data for DCP probe A-1596586” (2021)
